Patent US6737383B1, “Herbicidal oxadiazolidines” (priority 1999, dated 2004)

Tests used:
bedstraw = assay: Test B pre/postemergence bedstraw; format: in vivo, Galium aparine
Outline: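 Response is a visual 0-to-10 score relative to untreated plants, where 0 means no effect and 10 means complete control, taken twelve to sixteen days after application. Treatments went onto soil at planting and onto foliage of 1- to 4-leaf plants, using a surfactant-containing non-phytotoxic solvent.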

blackgrass = assay: Test B pre/postemergence blackgrass; format: in vivo, Alopecurus myosuroides
Source text: (§1) Seeds of bedstraw (Galium aparine), blackgrass (Alopecurus myosuroides), surinam grass (Brachiaria decumbens), cocklebur (Xanthium strumarium), corn (Zea mays), crabgrass (Digitaria sanguinalis), giant foxtail (Setaria faberii), morningglory (Ipomoea hederacea), pigweed (Amaranthus retroflexus), rape (Brassica napus), soybean (Glycine max), sugar beet (Beta vulgaris), velvetleaf (Abutilon theophrasti), wheat (Triticum aestivum), wild oat (Avena fatua) and purple nutsedge (Cyperus rotundus) tubers were planted and treated preemnergence with test chemicals formulated in a non-phytotoxic solvent mixture which included a surfactant.
(§2) At the same time, these crop and weed species were also treated with postemergence applications of test chemicals formulated in the same manner. Plants ranged in height from 2 to 18 cm (1- to 4-leaf stage) for postemergence treatments. Plant species in the flood test consisted of rice (Oryza sativa), smallflower flatsedge (Cyperus difformis), duck salad (Heteranthera limosa) and bamyardgrass (Echinochloa crus-galli) grown to the 2-leaf stage for testing. Treated plants and controls were maintained in a greenhouse for twelve to sixteen days, after which all species were compared to controls and visually evaluated. Plant response ratings, summarized in Table B, are based on a scale of 0 to 10 where 0 is no effect and 10 is complete control. A dash (−) response means no test result.

surinam grass = assay: Test B pre/postemergence surinam grass; format: in vivo, Brachiaria decumbens
Source text: as §1, §2

cocklebur = assay: Test B pre/postemergence cocklebur; format: in vivo, Xanthium strumarium
Source text: as §1, §2

corn = assay: Test B pre/postemergence corn; format: in vivo, Zea mays
Source text: as §1, §2

crabgrass = assay: Test B pre/postemergence crabgrass; format: in vivo, Digitaria sanguinalis
Source text: as §1, §2

giant foxtail = assay: Test B pre/postemergence giant foxtail; format: in vivo, Setaria faberii
Source text: as §1, §2

morningglory = assay: Test B pre/postemergence morningglory; format: in vivo, Ipomoea hederacea
Source text: as §1, §2

pigweed = assay: Test B pre/postemergence pigweed; format: in vivo, Amaranthus retroflexus
Source text: as §1, §2

rape = assay: Test B pre/postemergence rape; format: in vivo, Brassica napus
Source text: as §1, §2

soybean = assay: Test B pre/postemergence soybean; format: in vivo, Glycine max
Source text: as §1, §2

sugar beet = assay: Test B pre/postemergence sugar beet; format: in vivo, Beta vulgaris
Source text: as §1, §2

velvetleaf = assay: Test B pre/postemergence velvetleaf; format: in vivo, Abutilon theophrasti
Source text: as §1, §2

wheat = assay: Test B pre/postemergence wheat; format: in vivo, Triticum aestivum
Source text: as §1, §2

wild oat = assay: Test B pre/postemergence wild oat; format: in vivo, Avena fatua
Source text: as §1, §2

purple nutsedge = assay: Test B pre/postemergence purple nutsedge; format: in vivo, Cyperus rotundus
Source text: as §1, §2

[1] = Postemergence, Rate 62 g/ha, scale of 0 to 10, 0 is no effect, 10 is complete control
[2] = Postemergence, Rate 125 g/ha, scale of 0 to 10 where 0 is no effect and 10 is complete control
[3] = Preemergence, Rate 62 g/ha, scale 0 to 10 (0 no effect, 10 complete control)
[4] = Preemergence, Rate 125 g/ha, scale of 0 to 10 where 0 is no effect and 10 is complete control
[5] = Preemergence, Rate 500 g/ha, scale of 0 to 10 where 0 is no effect and 10 is complete control
[6] = Postemergence, Rate 250 g/ha, scale of 0 to 10, 0 is no effect, 10 is complete control
[7] = Postemergence, Rate 500 g/ha, scale of 0 to 10 where 0 is no effect and 10 is complete control
[8] = Preemergence, Rate 250 g/ha, scale 0 (no effect) to 10 (complete control)
[9] = Rate 62 g/ha, Preemergence, scale 0 to 10
[10] = Rate 500 g/ha, Preemergence, scale 0 to 10 (0 no effect, 10 complete control)

CC(C)N(C(=O)n1oc(=O)n(CCCC(F)(F)F)c1=O)c1ccccc1 [Compound 585]
Bedstraw plant response rating (bedstraw; [1]): 0
Plant response rating, Bedstraw (bedstraw; [2]): 8
Bedstraw plant response rating (bedstraw; [3]): 7
Bedstraw plant response rating (bedstraw; [4]): 8
Bedstraw plant response rating (0 to 10 scale) (bedstraw; Preemergence, Rate 250 g/ha): 9
Bedstraw plant response rating (bedstraw; [5]): 8
Blackgrass plant response rating (blackgrass; [1]): 3
Plant response rating, Blackgrass (blackgrass; [2]): 6
Blackgrass plant response rating (blackgrass; [6]): 6
Plant response rating, Blackgrass (blackgrass; [7]): 7
Blackgrass plant response rating (blackgrass; [3]): 3
Blackgrass plant response rating (blackgrass; [4]): 8
Blackgrass plant response rating (0 to 10 scale) (blackgrass; Preemergence, Rate 250 g/ha): 8
Blackgrass plant response rating (blackgrass; [5]): 8
B. signalgrass plant response rating (surinam grass; [1]): 0
Plant response rating, B. signalgrass (surinam grass; [2]): 0
B. signalgrass plant response rating (surinam grass; [6]): 0
Plant response rating, B. signalgrass (surinam grass; [7]): 7
B. signalgrass plant response rating (surinam grass; [3]): 3
B. signalgrass plant response rating (surinam grass; [4]): 8
B. signalgrass plant response rating (0 to 10 scale, 0 is no effect, 10 is complete control) (surinam grass; Preemergence, Rate 250 g/ha): 9
B. signalgrass plant response rating (surinam grass; [5]): 9
Cocklebur plant response rating (cocklebur; [1]): 0
Plant response rating, Cocklebur (cocklebur; [2]): 0
Cocklebur plant response rating (cocklebur; [6]): 0
Plant response rating, Cocklebur (cocklebur; [7]): 7
Cocklebur plant response rating (cocklebur; [3]): 0
Cocklebur plant response rating (cocklebur; [4]): 0
Cocklebur plant response rating (0 to 10 scale) (cocklebur; Preemergence, Rate 250 g/ha): 0
Cocklebur plant response rating (cocklebur; [5]): 3
Corn plant response rating (corn; [1]): 0
Plant response rating, Corn (corn; [2]): 0
Corn plant response rating (corn; [6]): 0
Plant response rating, Corn (corn; [7]): 5
Corn plant response rating (corn; [3]): 0
Corn plant response rating (corn; [4]): 2
Corn plant response rating (0 to 10 scale) (corn; Preemergence, Rate 250 g/ha): 3
Corn plant response rating (corn; [5]): 5
Plant response rating, Crabgrass (crabgrass; [2]): 5
Crabgrass plant response rating (crabgrass; [6]): 9
Plant response rating, Crabgrass (crabgrass; [7]): 9
Crabgrass plant response rating (crabgrass; [3]): 5
Crabgrass plant response rating (crabgrass; [4]): 8
Crabgrass plant response rating (crabgrass; [5]): 10
Giant foxtail plant response rating (giant foxtail; [1]): 6
Plant response rating, Giant foxtail (giant foxtail; [2]): 6
Giant foxtail plant response rating (giant foxtail; [6]): 8
Plant response rating, Giant foxtail (giant foxtail; [7]): 9
Giant foxtail plant response rating (giant foxtail; [3]): 7
Giant foxtail plant response rating (giant foxtail; [4]): 6
Giant foxtail plant response rating (giant foxtail; [5]): 10
Morningglory plant response rating (morningglory; [1]): 4
Plant response rating, Morningglory (morningglory; [2]): 8
Morningglory plant response rating (morningglory; [6]): 10
Plant response rating, Morningglory (morningglory; [7]): 10
Morningglory plant response rating (morningglory; [3]): 0
Morningglory plant response rating (morningglory; [4]): 0
Morningglory plant response rating (morningglory; [5]): 5
Plant response rating, Redroot pigweed (pigweed; [2]): 0
Redroot pigweed plant response rating (pigweed; [6]): 3
Plant response rating, Redroot pigweed (pigweed; [7]): 7
Redroot pigweed plant response rating (pigweed; [3]): 6
Redroot pigweed plant response rating (pigweed; [4]): 9
Redroot pigweed plant response rating (pigweed; [5]): 10
Rape plant response rating (rape; [1]): 0
Plant response rating, Rape (rape; [2]): 3
Rape plant response rating (rape; [6]): 5
Plant response rating, Rape (rape; [7]): 5
Rape plant response rating (rape; [3]): 3
Rape plant response rating (rape; [4]): 8
Rape plant response rating (rape; [5]): 10
Plant response rating, Soybean (soybean; [2]): 0
Soybean plant response rating (soybean; [6]): 4
Plant response rating, Soybean (soybean; [7]): 3
Soybean plant response rating (soybean; [3]): 0
Soybean plant response rating (soybean; [4]): 0
Soybean plant response rating (soybean; [5]): 3
Plant response rating, Sugarbeets (sugar beet; [2]): 2
Sugarbeets plant response rating (sugar beet; [6]): 4
Plant response rating, Sugarbeets (sugar beet; [7]): 7
Sugarbeets plant response rating (sugar beet; [3]): 0
Sugarbeets plant response rating (sugar beet; [4]): 3
Sugarbeets plant response rating (sugar beet; [5]): 6
Plant response rating, Velvetleaf (velvetleaf; [2]): 3
Velvetleaf plant response rating (velvetleaf; [6]): 4
Plant response rating, Velvetleaf (velvetleaf; [7]): 5
Velvetleaf plant response rating (velvetleaf; [3]): 0
Velvetleaf plant response rating (velvetleaf; [4]): 0
Velvetleaf plant response rating (velvetleaf; [5]): 6
Plant response rating, Wheat (wheat; [2]): 2
Wheat plant response rating (wheat; [6]): 2
Plant response rating, Wheat (wheat; [7]): 4
Wheat plant response rating (wheat; [3]): 0
Wheat plant response rating (wheat; [4]): 3
Wheat plant response rating (wheat; [5]): 3
Plant response rating, Wild oats (wild oat; [2]): 0
Wild oats plant response rating (wild oat; [6]): 0
Plant response rating, Wild oats (wild oat; [7]): 2
Wild oats plant response rating (wild oat; [3]): 0
Wild oats plant response rating (wild oat; [4]): 3
Wild oats plant response rating (wild oat; [5]): 9
Nutsedge plant response rating (purple nutsedge; [1]): 0
Plant response rating, Nutsedge (purple nutsedge; [2]): 0
Nutsedge plant response rating (purple nutsedge; [6]): 0
Plant response rating, Nutsedge (purple nutsedge; [7]): 0
Nutsedge plant response rating (purple nutsedge; [3]): 0
Nutsedge plant response rating (purple nutsedge; [4]): 0
Nutsedge plant response rating (purple nutsedge; [5]): 10

CCOC(CC)n1c(=O)on(C(=O)N(c2ccc(F)cc2)C(C)C)c1=O (stereo not shown) [Compound 742]
Plant response rating, Bedstraw (bedstraw; [4]): 0
Bedstraw plant response rating (bedstraw; [8]): 0
Bedstraw plant response rating (bedstraw; [9]): 0
Bedstraw plant response rating (bedstraw; [10]): 0
Plant response rating, Blackgrass (blackgrass; [4]): 0
Blackgrass plant response rating (blackgrass; [8]): 0
Blackgrass plant response rating (blackgrass; [9]): 0
Blackgrass plant response rating (blackgrass; [10]): 0
B. signalgrass plant response rating (surinam grass; Preemergence, Rate 62 g/ha, scale of 0 to 10 where 0 is no effect and 10 is complete control): 0
Plant response rating, B. signalgrass (surinam grass; [4]): 0
B. signalgrass plant response rating (surinam grass; [8]): 0
B. signalgrass plant response rating (surinam grass; [10]): 0
Plant response rating, Cocklebur (cocklebur; [4]): 0
Cocklebur plant response rating (cocklebur; [8]): 0
Cocklebur plant response rating (cocklebur; [9]): 0
Cocklebur plant response rating (cocklebur; [10]): 0
Plant response rating, Corn (corn; [4]): 0
Corn plant response rating (corn; [8]): 0
Corn plant response rating (corn; [9]): 0
Corn plant response rating (corn; [10]): 0
Plant response rating, Crabgrass (crabgrass; [4]): 0
Crabgrass plant response rating (crabgrass; [8]): 0
Crabgrass plant response rating (crabgrass; [9]): 0
Crabgrass plant response rating (crabgrass; [10]): 0
Plant response rating, Giant foxtail (giant foxtail; [4]): 0
Giant foxtail plant response rating (giant foxtail; [8]): 0
Giant foxtail plant response rating (giant foxtail; [9]): 0
Giant foxtail plant response rating (giant foxtail; [10]): 0
Plant response rating, Morningglory (morningglory; [4]): 0
Morningglory plant response rating (morningglory; [8]): 0
Morningglory plant response rating (morningglory; [9]): 0
Morningglory plant response rating (morningglory; [10]): 0
Plant response rating, Redroot pigweed (pigweed; [4]): 0
Redroot pigweed plant response rating (pigweed; [8]): 0
Redroot pigweed plant response rating (pigweed; [9]): 0
Redroot pigweed plant response rating (pigweed; [10]): 0
Plant response rating, Rape (rape; [4]): 0
Rape plant response rating (rape; [8]): 0
Rape plant response rating (rape; [9]): 0
Rape plant response rating (rape; [10]): 0
Plant response rating, Soybean (soybean; [4]): 0
Soybean plant response rating (soybean; [8]): 0
Soybean plant response rating (soybean; [9]): 0
Soybean plant response rating (soybean; [10]): 0
Plant response rating, Sugarbeets (sugar beet; [4]): 0
Sugarbeets plant response rating (sugar beet; [8]): 0
Sugarbeets plant response rating (sugar beet; [9]): 0
Sugarbeets plant response rating (sugar beet; [10]): 0
Plant response rating, Velvetleaf (velvetleaf; [4]): 0
Velvetleaf plant response rating (velvetleaf; [8]): 0
Velvetleaf plant response rating (velvetleaf; [9]): 0
Velvetleaf plant response rating (velvetleaf; [10]): 0
Plant response rating, Wheat (wheat; [4]): 0
Wheat plant response rating (wheat; [8]): 0
Wheat plant response rating (wheat; [9]): 0
Wheat plant response rating (wheat; [10]): 0
Plant response rating, Wild oats (wild oat; [4]): 0
Wild oats plant response rating (wild oat; [8]): 0
Wild oats plant response rating (wild oat; [9]): 0
Wild oats plant response rating (wild oat; [10]): 0
Plant response rating, Nutsedge (purple nutsedge; [4]): 0
Nutsedge plant response rating (purple nutsedge; [8]): 0
Nutsedge plant response rating (purple nutsedge; [9]): 0
Nutsedge plant response rating (purple nutsedge; [10]): 0
